Source: the NIST ThermoML archive (doi:10.1016/j.fluid.2006.02.016)
Values joined by “and” are separate entries in the source; they are usually repeats but may differ in a detail not shown here. Equal values may be shown once. Numbers after ± are expanded uncertainties.

Details: Liquid

Row | SMILES | vapor or sublimation pressure (273.15 K) | vapor or sublimation pressure (283.15 K) | vapor or sublimation pressure (293.15 K) | vapor or sublimation pressure (303.15 K) | vapor or sublimation pressure (313.15 K) | vapor or sublimation pressure (323.15 K) | vapor or sublimation pressure (268.15 K) | vapor or sublimation pressure (278.15 K) | vapor or sublimation pressure (288.15 K) | vapor or sublimation pressure (298.15 K) | vapor or sublimation pressure (308.15 K) | vapor or sublimation pressure (318.15 K)
1 | FCC(F)(F)F [1,1,1,2-tetrafluoroethane] | 294.2 ± 2.5 kPa | 416.9 ± 3.3 kPa | 571.9 ± 4.3 kPa | 770.4 ± 5.6 kPa | 1012.8 ± 7.1 kPa | 1313.8 ± 9.1 kPa |  |  |  |  |  | 
2 | CC(F)(F)F [1,1,1-trifluoroethane] |  |  |  |  |  |  | 529.2 ± 4 kPa | 722.4 ± 5.3 kPa | 962 ± 6.8 kPa | 1261.8 ± 8.7 kPa | 1619.8 ± 11 kPa | 2055.2 ± 14 kPa
3 | CCC [propane] | 474.6 ± 3.7 kPa | 636.6 ± 4.7 kPa | 836.2 ± 6 kPa | 1078.4 ± 7.6 kPa | 1369 ± 12 kPa and 1363.8 ± 9.4 kPa | 1709.2 ± 12 kPa | 407.9 ± 3.3 kPa | 549.4 ± 4.2 kPa | 735 ± 5.4 kPa | 954.8 ± 6.8 kPa | 1213 ± 8.4 kPa | 1530.8 ± 10 kPa
